This experiment deals with BRD4 (Homo sapiens, UniProt O60885). The experiment can be described thus: Time Resolved Fluorescence Resonance Energy Transfer (TR-FRET) binding assay, FRET BRD4. To be noted: one of the FRET assays described (BRD4 bromodomain construct not specified).

Like-named read-outs stand apart in the source and are kept apart here. A value given as a limit tells only on which side of the number the result lay.

For the compound `[2H]C([2H])([2H])c1nnn(C)c1-c1cnc2c3cc(N4CCS(=O)(=O)[C@@H](C)C4)ccc3n([C@H](c3ccccc3F)C3CCOCC3)c2c1` [Example 52, (2S)-4-{5-[(S)-(2-Fluorophenyl)(oxan-4-yl)methyl]-3-[4-(^2H3)methyl-1-methyl-1H-1,2,3-triazol-5-yl]-5H-pyrido[3,2-b]indol-8-yl}-2-methyl-11λ^6,4-thiomorpholine-1,1-dione], the IC50 (read-out: FRET BRD4 IC50) is below 1 nM.
The same measure, in the same setting: the result for `[2H]C([2H])([2H])c1nnn(C)c1-c1cnc2c3ccc(C4(O)CCNCC4)c(F)c3n([C@H](c3ccccc3)C3CCOCC3)c2c1` [Example 53, 4-{6-Fluoro-3-[4-(^2H3)methyl-1-methyl-1H-1,2,3-triazol-5-yl]-5-[(S)-oxan-4-yl(phenyl)methyl]-5H-pyrido[3,2-b]indol-7-yl}piperidin-4-ol] reads below 1 nM.
Regarding `[2H]C([2H])([2H])c1nnn(C)c1-c1cnc2c3ccc(C4(O)CCN(C)CC4)c(F)c3n([C@H](c3ccccc3)C3CCOCC3)c2c1` [Example 54, 4-{6-Fluoro-3-[4-(^2H3)methyl-1-methyl-1H-1,2,3-triazol-5-yl]-5-[(S)-oxan-4-yl(phenyl)methyl]-5H-pyrido[3,2-b]indol-7-yl}-1-methylpiperidin-4-ol], where the note is “FRET BRD4 IC50 (nM)”, the IC50 is below 1 nM.
As for `[2H]C([2H])([2H])c1nnn(C)c1-c1cnc2c3ccc(C4(C)COC(=O)N4)c(F)c3n([C@H](c3ccccc3)C3CCOCC3)c2c1` (stereo partly drawn) [Example 55, 4-{6-Fluoro-3-[4-(^2H3)methyl-1-methyl-1H-1,2,3-triazol-5-yl]-5-[(S)-oxan-4-yl(phenyl)methyl]-5H-pyrido[3,2-b]indol-7-yl}-4-methyl-1,3-oxazolidin-2-one], under “read-out: FRET BRD4 IC50”, the IC50 is below 1 nM.
Consider `[2H]C([2H])([2H])c1nnn(C)c1-c1cnc2c3ccc(C4(C)COC(=O)N4)c(F)c3n([C@H](c3ccccc3)C3CCOCC3)c2c1` (stereo partly drawn) [Example 56, 4-{6-Fluoro-3-[4-(^2H3)methyl-1-methyl-1H-1,2,3-triazol-5-yl]-5-[(S)-oxan-4-yl(phenyl)methyl]-5H-pyrido[3,2-b]indol-7-yl}-4-methyl-1,3-oxazolidin-2-one], for which the IC50 (read-out: FRET BRD4 IC50) was below 1 nM.
Consider `[2H]C([2H])([2H])c1nnn(C)c1-c1cnc2c3ccc(N4CCCC4=O)c(F)c3n([C@H](c3ccccc3)C3CCOCC3)c2c1` [Example 57, 1-{6-Fluoro-3-[4-(^2H3)methyl-1-methyl-1H-1,2,3-triazol-5-yl]-5-[(S)-oxan-4-yl(phenyl)methyl]-5H-pyrido[3,2-b]indol-7-yl}pyrrolidin-2-one], for which the IC50 (read-out: FRET BRD4 IC50) was below 1 nM.
On the same count and under the same terms, with `[2H]C([2H])([2H])c1nnn(C)c1-c1cnc2c3ccc(N4CCCS4(=O)=O)c(F)c3n([C@H](c3ccccc3)C3CCOCC3)c2c1` [Example 58, 2-{6-Fluoro-3-[4-(^2H3)methyl-1-methyl-1H-1,2,3-triazol-5-yl]-5-[(S)-oxan-4-yl(phenyl)methyl]-5H-pyrido[3,2-b]indol-7-yl}-1λ^6,2-thiazolidine-1,1-dione] the figure was below 1 nM.
On to `[2H]C([2H])([2H])c1nnn(C)c1-c1cnc2c3ccc(N4CCNC4=O)c(F)c3n([C@H](c3ccccc3)C3CCOCC3)c2c1` [Example 59, 1-{6-Fluoro-3-[4-(^2H3)methyl-1-methyl-1H-1,2,3-triazol-5-yl]-5-[(S)-oxan-4-yl(phenyl)methyl]-5H-pyrido[3,2-b]indol-7-yl}imidazolidin-2-one], for which the IC50 (read-out: FRET BRD4 IC50) was below 5 nM.
Turning to `[2H]C([2H])([2H])c1nnn(C)c1-c1cnc2c3ccc(N4CCOC4=O)c(F)c3n([C@H](c3ccccc3)C3CCOCC3)c2c1` [Example 60, 3-{6-Fluoro-3-[4-(^2H3)methyl-1-methyl-1H-1,2,3-triazol-5-yl]-5-[(S)-oxan-4-yl(phenyl)methyl]-5H-pyrido[3,2-b]indol-7-yl}-1,3-oxazolidin-2-one], where the note is “read-out: FRET BRD4 IC50”, the IC50 is below 1 nM.
With `[2H]C([2H])([2H])c1nnn(C)c1-c1cnc2c3ccc(N4CCCS4(=O)=O)c(F)c3n([C@H](c3ncccc3F)C3CCOCC3)c2c1` [Example 61, 2-{6-Fluoro-5-[(S)-(3-fluoropyridin-2-yl)(oxan-4-yl)methyl]-3-[4-(^2H3)methyl-1-methyl-1H-1,2,3-triazol-5-yl]-5H-pyrido[3,2-b]indol-7-yl}-1λ^6,2-thiazolidine-1,1-dione], the IC50 (read-out: FRET BRD4 IC50) was below 5 nM.
Still for that read-out and setting: with `[2H]C([2H])([2H])c1nnn(C)c1-c1cnc2c3ccc(C4(O)CCOCC4)c(F)c3n([C@H](c3ccccc3)C3CCOCC3)c2c1` [Example 62, 4-{6-Fluoro-3-[4-(^2H3)methyl-1-methyl-1H-1,2,3-triazol-5-yl]-5-[(S)-oxan-4-yl(phenyl)methyl]-5H-pyrido[3,2-b]indol-7-yl}oxan-4-ol] the figure was below 1 nM.
On the same count and under the same terms, with `[2H]C([2H])([2H])c1nnn(C)c1-c1cnc2c3ccc(C4(O)CCOC4)c(F)c3n([C@H](c3ccccc3)C3CCOCC3)c2c1` (stereo partly drawn) [Example 63, 3-{6-Fluoro-3-[4-(^2H3)methyl-1-methyl-1H-1,2,3-triazol-5-yl]-5-[(S)-oxan-4-yl(phenyl)methyl]-5H-pyrido[3,2-b]indol-7-yl}oxolan-3-ol] the figure was below 1 nM.
As to `[2H]C([2H])([2H])c1nnn(C)c1-c1cnc2c3ccc(C4(O)CCOC4)c(F)c3n([C@H](c3ccccc3)C3CCOCC3)c2c1` (stereo partly drawn) [Example 64, 3-{6-Fluoro-3-[4-(^2H3)methyl-1-methyl-1H-1,2,3-triazol-5-yl]-5-[(S)-oxan-4-yl(phenyl)methyl]-5H-pyrido[3,2-b]indol-7-yl}oxolan-3-ol], under “read-out: FRET BRD4 IC50”, the IC50 was below 1 nM.
Take `[2H]C([2H])([2H])c1nnn(C)c1-c1cnc2c3ccc(N4CCC(F)(F)CC4)cc3n(C(c3ncccc3F)C3CCOCC3)c2c1` (centres unmarked) [Example 65, 2-{[7-(4,4-Difluoropiperidin-1-yl)-3-[4-(^2H3)methyl-1-methyl-1H-1,2,3-triazol-5-yl]-5H-pyrido[3,2-b]indol-5-yl](oxan-4-yl)methyl}-3-fluoropyridine]: the IC50 (read-out: FRET BRD4 IC50) was below 1 nM.
As for `[2H]C([2H])([2H])c1nnn(C)c1-c1cnc2c3ccc(N4CCC(F)(F)CC4)cc3n(C(c3ncccc3F)C3CCOCC3)c2c1` (centres unmarked) [Example 66, 2-{[7-(4,4-Difluoropiperidin-1-yl)-3-[4-(^2H3)methyl-1-methyl-1H-1,2,3-triazol-5-yl]-5H-pyrido[3,2-b]indol-5-yl](oxan-4-yl)methyl}-3-fluoropyridine], the IC50 (read-out: FRET BRD4 IC50) is below 5 nM.
For `[2H]C([2H])([2H])c1nnn(C)c1-c1cnc2c3ccc(N4CCS(=O)(=O)CC4)cc3n(C(c3ncccc3F)C3CCOCC3)c2c1` (centres unmarked) [Example 67, 4-{5-[(3-Fluoropyridin-2-yl)(oxan-4-yl)methyl]-3-[4-(^2H3)methyl-1-methyl-1H-1,2,3-triazol-5-yl]-5H-pyrido[3,2-b]indol-7-yl}-1λ^6,4-thiomorpholine-1,1-dione], the IC50 (read-out: FRET BRD4 IC50) was below 5 nM.
With `[2H]C([2H])([2H])c1nnn(C)c1-c1cnc2c3ccc(N4CCC(S(C)(=O)=O)CC4)cc3n(C(c3ncccc3F)C3CCOCC3)c2c1` (centres unmarked) [Example 69, 3-Fluoro-2-{[7-(4-methanesulfonylpiperidin-1-yl)-3-[4-(^2H3)methyl-1-methyl-1H-1,2,3-triazol-5-yl]-5H-pyrido[3,2-b]indol-5-yl](oxan-4-yl)methyl}pyridine], the IC50 (read-out: FRET BRD4 IC50) was below 1 nM.

The record behind these values is patent publication US10174024B2, “5H-pyrido[3,2-B]indole compounds as anticancer agents” (BRISTOL-MYERS SQUIBB COMPANY, priority 2015, dated 2019).
